The term IC50 denotes the concentration at which inhibition is half-maximal. By AC50 is commonly meant the concentration at which the activity in the assay is half-maximal.

The nature of assay [1]: NIH-3T3 fibroblast cytotoxicity, dose response, cytotoxicity control, cell-based, fluorescence, Alamar Blue, secondary assay (AID 2327).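 Note: NIH-3T3 mouse fibroblasts cultured with fluconazole at 8 µg/mL.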 It is filed as functional. In general terms: The colour change of resazurin is a common sign of viable cells or microbes.
Assay [2] is described as follows: C. albicans growth with fluconazole, confirmation, fluorescence, retest (AID 2467). In kind it is functional, cell-based.
In assay [3] the target is Genome polyprotein (dengue virus type 2, UniProt P29990). In words: Dengue-2 NS5 methyltransferase inhibitors, primary screen, biochemical, confirmation dose response (AID 588689). It is filed as functional.
Assay [4] deals with H9c2. In words: cells. In kind it is functional, cell-based. The settings on record: Rattus norvegicus, H9c2, Myocardium.
Assay [5] has as its target T1, RNA-binding protein pos-1 (Caenorhabditis elegans, UniProt G5EF15).
T1 sequence (G5EF15 whole entry): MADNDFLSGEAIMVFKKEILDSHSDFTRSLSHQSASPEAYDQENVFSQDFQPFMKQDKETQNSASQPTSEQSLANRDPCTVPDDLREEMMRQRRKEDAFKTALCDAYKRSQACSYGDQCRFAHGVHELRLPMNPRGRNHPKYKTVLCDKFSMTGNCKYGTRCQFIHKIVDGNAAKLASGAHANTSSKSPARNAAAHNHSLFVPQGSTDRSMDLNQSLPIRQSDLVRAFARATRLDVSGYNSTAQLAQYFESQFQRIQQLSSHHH
In words: inhibitors of POS-1/mex-3 RNA binding, dose response, biochemical, fluorescence polarization (AID 1964).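 Note: purified POS-1 fused to maltose binding protein made in E. coli; potency of compounds blocking POS-1 binding to fluorescent RNA.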

Assay [6] deals with T2, Zinc finger protein mex-5 (Caenorhabditis elegans, UniProt Q9XUB2).
T2 sequence (Q9XUB2 whole entry): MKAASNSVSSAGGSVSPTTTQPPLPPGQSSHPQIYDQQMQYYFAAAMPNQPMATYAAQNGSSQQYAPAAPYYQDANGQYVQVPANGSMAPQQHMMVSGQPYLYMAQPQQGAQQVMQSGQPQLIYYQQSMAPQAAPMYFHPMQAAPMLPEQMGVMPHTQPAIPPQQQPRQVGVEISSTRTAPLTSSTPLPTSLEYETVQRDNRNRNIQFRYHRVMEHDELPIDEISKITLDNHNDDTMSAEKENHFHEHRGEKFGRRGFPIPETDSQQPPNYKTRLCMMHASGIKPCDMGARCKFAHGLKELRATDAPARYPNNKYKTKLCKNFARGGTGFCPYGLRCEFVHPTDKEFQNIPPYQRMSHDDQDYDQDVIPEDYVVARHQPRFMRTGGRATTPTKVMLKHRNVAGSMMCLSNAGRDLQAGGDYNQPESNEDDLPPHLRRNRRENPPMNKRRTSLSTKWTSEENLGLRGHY
In words: MEX-5/TCR-2 RNA interaction inhibitors, dose response, biochemical, C. elegans, fluorescence polarization (AID 1960). A general note: In fluorescence polarisation assays a small probe gives low polarisation when free and higher when bound to something large.

In assay [7] the test system is Streptococcus. In words: Group A Streptococcus viability loss, dose response, counter-screen for streptokinase expression inhibitor project, luminescence, BacTiterGlo (AID 1915).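 Note: potency for reduction of bacterial viability or growth.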 In kind it is functional, organism-based. (In general: The purpose of a counterscreen is to sort out artefacts and off-target activity.)
The test system of assay [8] is Streptococcus sp. 'group A'. In words: growth inhibition of control SK(-) GAS strain, dose response, counter-screen for streptokinase expression inhibitor project, luminescence, kanamycin, BacTiterGlo, confirmation (AID 1900). It is filed as functional, organism-based.
Assay [9] has as its target T3, Streptokinase A (Streptococcus pyogenes serotype M1, UniProt P10520).
T3 sequence (P10520 whole entry): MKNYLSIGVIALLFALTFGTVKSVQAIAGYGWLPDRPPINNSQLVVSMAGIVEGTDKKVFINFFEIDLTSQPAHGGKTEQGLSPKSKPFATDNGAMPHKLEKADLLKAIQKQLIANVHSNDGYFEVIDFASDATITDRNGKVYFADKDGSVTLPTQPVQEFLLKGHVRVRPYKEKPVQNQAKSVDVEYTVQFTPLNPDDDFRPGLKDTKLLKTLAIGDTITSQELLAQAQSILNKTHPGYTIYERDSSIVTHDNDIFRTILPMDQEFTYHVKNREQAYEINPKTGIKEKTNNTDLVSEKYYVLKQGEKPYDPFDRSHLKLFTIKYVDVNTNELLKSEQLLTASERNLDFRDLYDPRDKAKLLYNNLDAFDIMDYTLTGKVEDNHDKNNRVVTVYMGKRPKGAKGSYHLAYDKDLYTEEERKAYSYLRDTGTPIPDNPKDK
In words: S. pyogenes streptokinase expression inhibitors, potency, dose response, plasminogen activation absorbance, OD405 (AID 1914).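 Note: secreted streptokinase activity via plasminogen activation per viability signal from cell pellet.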 In kind it is functional, Streptococcus pyogenes M1 GAS.

Assay [10] in a line: inhibitors of SNCA 5'UTR-driven reporter translation, confirmation, H4 neuroglioma cells, luminescence (AID 1988). It is filed as functional, cell-based.
For assay [11], the system named is INS1. In words: beta cell apoptosis inhibitors, cytokine rescue, dose response, luminescence, retest (AID 449756).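 Note: cell death triggered by IL-1 beta plus TNF-alpha plus IFN-gamma mixture; protective hits raise ATP signal compared with cytokine alone wells.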 In kind it is functional, cell-based. Conditions: Rattus norvegicus.
Assay [12] in a line: Luminescence Cell-Based Dose Response HTS to Identify Inhibitors of 5'UTR Stem-Loop Driven Prion Protein mRNA Translation in H4 Neuroglioblastoma Cells. [Related pubchem assays: 1827 (Project Summary), 1813 (Primary HTS)]. In kind it is functional.
Assay [13] in a line: inhibitors of firefly luciferase expression or activity, dose response, H4 neuroglioma cells, luminescence (AID 1990). In kind it is functional, cell-based.
Assay [14] deals with T4, Corticotropin-releasing factor receptor 2/Corticotropin-releasing factor-binding protein (Homo sapiens, UniProt P24387+Q13324).
T4 sequence (Q13324 whole entry): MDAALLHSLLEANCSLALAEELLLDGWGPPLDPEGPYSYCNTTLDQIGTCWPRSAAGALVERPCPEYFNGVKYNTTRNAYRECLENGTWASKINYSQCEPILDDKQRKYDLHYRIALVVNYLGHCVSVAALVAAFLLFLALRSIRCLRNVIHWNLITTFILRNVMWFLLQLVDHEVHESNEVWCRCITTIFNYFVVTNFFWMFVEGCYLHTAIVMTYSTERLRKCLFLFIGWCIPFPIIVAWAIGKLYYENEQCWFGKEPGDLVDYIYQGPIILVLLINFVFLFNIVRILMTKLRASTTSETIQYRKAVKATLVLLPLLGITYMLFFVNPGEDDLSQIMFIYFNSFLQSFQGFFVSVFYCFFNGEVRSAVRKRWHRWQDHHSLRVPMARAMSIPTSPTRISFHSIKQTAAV
T4 sequence (P24387 whole entry): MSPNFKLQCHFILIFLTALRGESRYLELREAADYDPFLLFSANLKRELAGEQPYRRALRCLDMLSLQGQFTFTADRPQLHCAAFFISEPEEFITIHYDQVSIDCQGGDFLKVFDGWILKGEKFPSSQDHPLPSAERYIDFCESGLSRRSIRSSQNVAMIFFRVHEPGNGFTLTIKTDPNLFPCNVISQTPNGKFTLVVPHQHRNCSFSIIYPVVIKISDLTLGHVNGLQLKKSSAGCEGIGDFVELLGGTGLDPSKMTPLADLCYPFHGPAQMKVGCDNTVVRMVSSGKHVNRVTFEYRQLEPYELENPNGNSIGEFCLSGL
The experiment in a line: activators of CRF receptor 2 with binding protein – uHTS hits, confirmation (AID 602473). It is filed as functional. The settings on record: read-out: EC50_Mean.

A short description of assay [15]: Shn3 3'UTR reporter inhibitors, dose response, cell-based, Clone20 osteoblasts, firefly luciferase, cherry-picked (AID 624132).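 Note: firefly luciferase luminescence from reporter carrying the Shn3 3'UTR in osteoblasts.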 It is filed as functional.

Calls of active or inactive are those of the source. Cut-off read from the data, not from the text of the source, for most assays here: actives have a measured EC50 and inactives only a lower limit.

Genome polyprotein, sequence (P29990 2492-3391 limits assumed): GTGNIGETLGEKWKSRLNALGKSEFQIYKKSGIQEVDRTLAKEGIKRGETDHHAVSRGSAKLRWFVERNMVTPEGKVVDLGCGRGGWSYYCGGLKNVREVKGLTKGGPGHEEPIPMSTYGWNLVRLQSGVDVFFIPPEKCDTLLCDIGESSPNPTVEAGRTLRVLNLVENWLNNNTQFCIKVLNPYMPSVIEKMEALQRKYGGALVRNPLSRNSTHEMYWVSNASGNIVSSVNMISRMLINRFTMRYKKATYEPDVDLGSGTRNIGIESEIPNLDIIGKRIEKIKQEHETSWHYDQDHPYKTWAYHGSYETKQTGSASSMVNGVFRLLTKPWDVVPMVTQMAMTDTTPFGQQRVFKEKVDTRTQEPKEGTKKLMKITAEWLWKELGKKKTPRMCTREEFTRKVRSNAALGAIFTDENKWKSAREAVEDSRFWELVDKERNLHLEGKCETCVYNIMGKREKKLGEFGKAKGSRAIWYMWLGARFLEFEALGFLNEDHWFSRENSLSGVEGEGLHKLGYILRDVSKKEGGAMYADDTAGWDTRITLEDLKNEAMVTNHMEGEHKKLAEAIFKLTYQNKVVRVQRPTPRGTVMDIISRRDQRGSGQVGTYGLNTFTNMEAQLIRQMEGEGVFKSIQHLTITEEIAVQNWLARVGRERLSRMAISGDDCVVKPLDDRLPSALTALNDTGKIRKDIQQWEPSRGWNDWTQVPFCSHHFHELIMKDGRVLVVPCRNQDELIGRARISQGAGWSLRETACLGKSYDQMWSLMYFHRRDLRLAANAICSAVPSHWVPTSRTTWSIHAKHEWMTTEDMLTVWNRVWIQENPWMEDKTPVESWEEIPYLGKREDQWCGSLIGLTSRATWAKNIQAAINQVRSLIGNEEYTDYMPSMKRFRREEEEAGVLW

With `CC(C)Cc1ccc(CN2CCCC(NC(=O)CCN3CCCO3)C2)cc1` (stereo not drawn), the figures for the EC50 in assay [1] and in assay [2] were > 160 µM (inconclusive) and > 38 µM (not active), respectively.

Take `Cc1ccc(S(=O)(=O)NN2C(=O)/C(=C/c3ccc(C(=O)O)cc3)SC2=S)cc1`: the IC50 in [3] was 64.9 µM (active). In the case of `COc1cc(NC(=O)c2c(OC)cccc2OC)ccc1NC(=O)c1cc2ccccc2o1`, the IC50 in assay [4] is > 79 µM (inactive). As to `COc1cc(C2C(C#N)=C(N)OC3=C2C(=O)CC(C)(C)C3)c([N+](=O)[O-])cc1OC` (stereo not drawn), the IC50 in [3] was > 100 µM (active). The EC50 is 19.5 µM (active) in assay [5] and 23 µM (inconclusive) in [6]. On to `CC(Sc1ccc(Cl)cc1)C(=O)NCc1ccc2c(c1)OCO2` (stereo not drawn), for which the EC50 in [1] is > 150 µM (inactive); in assay [2] it was 2.94 µM (active).

As to `COc1cccc(OC)c1C(=O)Nc1cc(C)nn1-c1nc2ccccc2[nH]1`, the EC50 was > 150 µM (not active) in [7], 15.5 µM (active) in [8] and > 150 µM (not active) in assay [9]. In addition, the IC50 in assay [4] is > 79 µM (inactive). Turning to `COc1cc(NC(=O)c2ccco2)c(C(=O)OCC(=O)c2c[nH]c3ccccc23)cc1OC`, the IC50 in assay [4] is > 79 µM (inactive). For the compound `CCC1(CC)NC(=O)N(CC(=O)OCC(=O)Nc2ccccc2[N+](=O)[O-])C1=O`, the IC50 in assay [4] is 11.9 µM (active). Consider `O=C(Cn1[nH]c(=O)c2ccccc2c1=O)NCC1COc2ccccc2O1` (stereo not drawn), for which the IC50 in assay [4] is 48.7 µM (inactive). `COc1ccc(-n2cccc2/C=C2\C(=N)N3N=C(C(C)C)SC3=NC2=O)cc1`: the EC50 is > 150 µM (inactive) in [1] and > 38 µM (not active) in [2]. As for `CC(C)C[C@H](NC(=O)c1[nH]cnc1C(=O)N[C@@H](CC(C)C)C(=O)OC(C)(C)C)C(=O)OCc1ccccc1`, the EC50 was 6.41 µM (active) in assay [7]; 8.51 µM (active) in assay [10]; 15.7 µM (active) in [12]; 21.1 µM (active) in [13]; 2.62 µM (active) in [8]. The AC50 in assay [11] is 11.8 µM (active).

As for `COc1cccc(NC(=S)NC(=O)Cc2ccc(Cl)cc2)c1`, the EC50 in assay [14] is 5.76 µM (active).

As for `O=S(=O)(NC1CCCCC1N1CCN(c2ccccc2F)CC1)c1ccc(Cl)cc1` (stereo not drawn), the EC50 in assay [14] was 6.24 µM (active). `CCc1nc2ccccc2c(C(=O)OCc2nc(O)c3ccccc3n2)c1C`: in [4], the IC50 was 5.84 µM (active). As to `O=C(Nc1ccccc1)c1cccc2c(-c3cccnc3)coc12`, in assay [4], the IC50 is > 79 µM (inactive). Regarding `CCCCc1ccc(/N=C/C2=C(O)OC3(CCCCC3)OC2=O)cc1`, in [14], the EC50 was 5.81 µM (active). `O=C(N/N=C/c1ccccn1)c1cc(-c2ccncc2)nc2ccccc12`: the IC50 in assay [4] is > 79 µM (inactive). Regarding `O=C(N/N=C/c1ccc2c(c1)OCO2)c1cc(-c2ccccc2Cl)nc2ccccc12`, the EC50 in assay [1] is 94.7 µM (inconclusive); in assay [2] it was 0.684 µM (active). Regarding `CC(=O)OCC(=O)[C@@]1(O)CC[C@H]2[C@@H]3CCC4=CC(=O)CC[C@]4(C)[C@H]3C(=O)C[C@@]21C` [CORTISONE ACETATE], in [15], the AC50 was 28.3 µM (active).
